Assay [1] addresses T1, P-selectin (Homo sapiens) (UniProt P16109).
T1 sequence (whole entry): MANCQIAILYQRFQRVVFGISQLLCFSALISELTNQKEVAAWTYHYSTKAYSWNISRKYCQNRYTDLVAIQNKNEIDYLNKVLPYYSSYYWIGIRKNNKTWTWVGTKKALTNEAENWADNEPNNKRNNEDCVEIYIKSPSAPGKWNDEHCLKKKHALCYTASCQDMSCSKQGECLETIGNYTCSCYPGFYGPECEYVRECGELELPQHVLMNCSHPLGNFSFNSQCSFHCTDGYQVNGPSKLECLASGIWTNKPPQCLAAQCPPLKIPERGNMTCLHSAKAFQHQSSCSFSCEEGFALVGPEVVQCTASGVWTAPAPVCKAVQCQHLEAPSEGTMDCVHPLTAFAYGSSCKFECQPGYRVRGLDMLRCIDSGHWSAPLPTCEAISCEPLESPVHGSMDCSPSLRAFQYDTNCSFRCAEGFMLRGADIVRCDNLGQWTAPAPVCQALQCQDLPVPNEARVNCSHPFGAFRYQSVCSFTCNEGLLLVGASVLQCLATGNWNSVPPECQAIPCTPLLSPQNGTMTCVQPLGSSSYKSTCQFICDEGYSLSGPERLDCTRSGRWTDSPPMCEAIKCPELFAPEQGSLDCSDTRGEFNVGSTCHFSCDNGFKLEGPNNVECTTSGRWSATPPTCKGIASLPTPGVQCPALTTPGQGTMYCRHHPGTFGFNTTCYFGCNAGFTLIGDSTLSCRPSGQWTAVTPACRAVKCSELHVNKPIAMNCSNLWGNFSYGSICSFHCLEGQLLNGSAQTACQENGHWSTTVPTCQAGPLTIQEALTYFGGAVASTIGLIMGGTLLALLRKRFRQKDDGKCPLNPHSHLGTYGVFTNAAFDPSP
Nature of the assay: Ratio of compound IC50 to sialyl Lewisx IC50 for solube P-selectin by surface plasmon resonance competitive binding assay.

The target of assay [2] is T2, P-selectin (Homo sapiens, UniProt P16109).
T2 sequence (P16109 whole entry): T1 sequence (whole entry)
Nature of the assay: Inhibition of immobilized rhPSGL-Ig binding to soluble P-selectin by surface plasmon resonance competitive binding assay. In general terms: SPR reads the build-up and loss of mass on a sensor chip optically.

Bounds are passed on as bounds.

The IC50 is the concentration at which inhibition is half-maximal. Higher therefore signals lower potency.

As to `COC(=O)[C@H](O[C@@H]1O[C@@H](C)[C@@H](O)[C@@H](O)[C@@H]1O)[C@@H](O[C@@H]1O[C@H](CO)[C@H](O)[C@H](O[C@H](Cc2ccccc2)C(=O)O)[C@H]1O)C(=O)OC`, the Ratio IC50 in assay [1] was 0.75. Besides, the IC50 in assay [2] turned out to be 880 µM.
In assay [2], `COC(=O)[C@H](O[C@@H]1O[C@@H](C)[C@@H](O)[C@@H](O)[C@@H]1O)[C@@H](O[C@@H]1O[C@H](CO)[C@H](OC(=O)c2cccc3ccccc23)[C@H](O[C@H](Cc2ccccc2)C(=O)O)[C@H]1O)C(=O)OC` displayed an IC50 above 1000 µM.
On to `COC(=O)[C@H](O[C@@H]1O[C@@H](C)[C@@H](O)[C@@H](O)[C@@H]1O)[C@@H](O[C@@H]1O[C@H](CO)[C@H](OC(=O)c2ccccc2)[C@H](O[C@H](Cc2ccccc2)C(=O)O)[C@H]1O)C(=O)OC`, for which the Ratio IC50 in assay [1] worked out at 37. The IC50 in assay [2] worked out at 18 µM.
For `COC(=O)[C@H](O[C@@H]1O[C@@H](C)[C@@H](O)[C@@H](O)[C@@H]1O)[C@@H](O[C@@H]1O[C@H](CO)[C@H](O)[C@H](OCC(=O)O)[C@H]1O)C(=O)OC`, the IC50 in assay [2] was above 1000 µM.
